Source: patent US8952024B2, “Herbicidal pyrimidone derivatives” (E I du Pont de Nemours and Company, priority 2009, dated 2015)

Key:
Assay in all cases: Test B pre-/postemergence plant response
Format in all cases: in vivo
[1] = test system: Surinam grass (Brachiaria decumbens); conditions: for Plant response rating, Surinam Grass: Postemergence, scale 0 to 100 (0 no effect, 100 complete control)
How it was run: (§1)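 Plants treated either at seeding (loam/sand soil) or postemergence at 2 to 18 cm height, using a surfactant-containing non-phytotoxic solvent formulation. Evaluation was visual after 13 to 15 days, 0 to 100 scale relative to controls.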

[2] = test system: large crabgrass (Digitaria sanguinalis); conditions: for Crabgrass, Large plant response rating (0 to 100 scale): 62 g ai/ha, 0 is no effect, 13 to 15 days
How it was run: as §1

[3] = test system: green foxtail (Setaria viridis); conditions: for Foxtail, Green plant response rating (0 to 100 scale): 62 g ai/ha, 0 is no effect, 13 to 15 days
How it was run: as §1

[4] = test system: Italian ryegrass (Lolium multiflorum); conditions: for Ryegrass, Italian plant response rating (0 to 100 scale): 62 g ai/ha, postemergence, 0 is no effect, 100 is complete control, 13 to 15 days; for Plant response rating, Ryegrass, Italian: Postemergence, scale 0 to 100 (0 no effect, 100 complete control)
How it was run: as §1

corn (Zea mays) = conditions: for Corn plant response rating (0 to 100 scale): 62 g ai/ha, 0 is no effect, 13 to 15 days
How it was run: as §1

[5] = test system: downy bromegrass (Bromus tectorum); conditions: for Bromegrass, Downy plant response rating (0 to 100 scale): 62 g ai/ha, 0 is no effect, 13 to 15 days
How it was run: as §1

[6] = test system: giant foxtail (Setaria faberii); conditions: for Foxtail, Giant plant response rating (0 to 100 scale): 62 g ai/ha, 0 is no effect, 13 to 15 days
How it was run: as §1

[7] = test system: johnsongrass (Sorghum halepense); conditions: for Johnsongrass plant response rating (0 to 100 scale): 62 g ai/ha, 0 is no effect, 13 to 15 days
How it was run: as §1

[8] = test system: velvetleaf (Abutilon theophrasti); conditions: for Velvetleaf plant response rating (0 to 100 scale): 62 g ai/ha, postemergence, 0 is no effect, 100 is complete control, 13 to 15 days; for Plant response rating, Velvetleaf: Postemergence, scale 0 to 100 (0 no effect, 100 complete control)
How it was run: as §1

kochia (Kochia scoparia) = conditions: for Kochia plant response rating (0 to 100 scale): 62 g ai/ha, 0 is no effect, 13 to 15 days
How it was run: as §1

[9] = test system: yellow nutsedge (Cyperus esculentus); conditions: for Nutsedge, Yellow plant response rating (0 to 100 scale): 62 g ai/ha, 0 is no effect, 13 to 15 days
How it was run: as §1

[10] = test system: blackgrass (Alopecurus myosuroides); conditions: for Blackgrass plant response rating (0 to 100 scale): 62 g ai/ha, 0 is no effect, 13 to 15 days
How it was run: as §1

[11] = test system: bermudagrass (Cynodon dactylon); conditions: for Bermudagrass plant response rating (0 to 100 scale): 62 g ai/ha, 0 is no effect, 13 to 15 days
How it was run: as §1

[12] = test system: woolly cupgrass (Eriochloa villosa); conditions: for Cupgrass, Woolly plant response rating (0 to 100 scale): 62 g ai/ha, 0 is no effect, 13 to 15 days
How it was run: as §1

[13] = test system: ragweed (common ragweed, Ambrosia elatior); conditions: for Ragweed plant response rating (0 to 100 scale): 62 g ai/ha, postemergence, 0 is no effect, 100 is complete control, 13 to 15 days; for Plant response rating, Ragweed: Postemergence, scale 0 to 100 (0 no effect, 100 complete control)
How it was run: as §1

[14] = test system: lambsquarters (Chenopodium album); conditions: for Lambsquarters plant response rating (0 to 100 scale): 62 g ai/ha, 0 is no effect, 13 to 15 days
How it was run: as §1

[15] = test system: goosegrass (Eleusine indica); conditions: for Goosegrass plant response rating (0 to 100 scale): 62 g ai/ha, 0 is no effect, 13 to 15 days
How it was run: as §1

[16] = 31 g ai/ha, postemergence, scale 0 to 100, 0 is no effect, 100 is complete control
[17] = postemergence, 100 is complete control
[18] = Postemergence, 125 g ai/ha, scale 0 to 100 (0 no effect, 100 complete control)
[19] = Postemergence, 250 g ai/ha, scale 0 to 100 (0 no effect, 100 complete control)

O=C1CCCC(O)=C1C(=O)c1cnc(-c2cccs2)n(CC2CCCO2)c1=O (centres unmarked) [Compound 109]
Surinam Grass plant response rating (0 to 100 scale) ([1]; 62 g ai/ha, postemergence, 0 is no effect, 100 is complete control, 13 to 15 days): 65 | Plant response rating, Surinam Grass ([1]; 125 g ai/ha): 65 | Plant response rating, Surinam Grass ([1]; 250 g ai/ha): 80 | Plant response rating, Crabgrass, Large [2, 16]: 65 | Crabgrass, Large plant response rating (0 to 100 scale) [2, 17]: 75 | Plant response rating, Crabgrass, Large [2, 18]: 75 | Plant response rating, Crabgrass, Large [2, 19]: 85 | Plant response rating, Foxtail, Green [3, 16]: 20 | Foxtail, Green plant response rating (0 to 100 scale) [3, 17]: 80 | Plant response rating, Foxtail, Green [3, 18]: 85 | Plant response rating, Foxtail, Green [3, 19]: 98 | Ryegrass, Italian plant response rating (0 to 100 scale) [4]: 0 | Plant response rating, Ryegrass, Italian ([4]; 125 g ai/ha): 5 | Plant response rating, Ryegrass, Italian ([4]; 250 g ai/ha): 40 | Plant response rating, Corn (corn (Zea mays); [16]): 0 | Corn plant response rating (0 to 100 scale) (corn (Zea mays); [17]): 15 | Plant response rating, Corn (corn (Zea mays); [18]): 60 | Plant response rating, Corn (corn (Zea mays); [19]): 60 | Plant response rating, Bromegrass, Downy [5, 16]: 0 | Bromegrass, Downy plant response rating (0 to 100 scale) [5, 17]: 0 | Plant response rating, Bromegrass, Downy [5, 18]: 5 | Plant response rating, Bromegrass, Downy [5, 19]: 5 | Plant response rating, Foxtail, Giant [6, 16]: 70 | Foxtail, Giant plant response rating (0 to 100 scale) [6, 17]: 75 | Plant response rating, Foxtail, Giant [6, 18]: 80 | Plant response rating, Foxtail, Giant [6, 19]: 90 | Plant response rating, Johnsongrass [7, 16]: 5 | Johnsongrass plant response rating (0 to 100 scale) [7, 17]: 30 | Plant response rating, Johnsongrass [7, 18]: 50 | Plant response rating, Johnsongrass [7, 19]: 75 | Velvetleaf plant response rating (0 to 100 scale) [8]: 98 | Plant response rating, Velvetleaf ([8]; 125 g ai/ha): 100 | Plant response rating, Velvetleaf ([8]; 250 g ai/ha): 100 | Plant response rating, Kochia (kochia (Kochia scoparia); [16]): 70 | Kochia plant response rating (0 to 100 scale) (kochia (Kochia scoparia); [17]): 75 | Plant response rating, Kochia (kochia (Kochia scoparia); [18]): 85 | Plant response rating, Kochia (kochia (Kochia scoparia); [19]): 98 | Nutsedge, Yellow plant response rating (0 to 100 scale) [9, 17]: 65 | Plant response rating, Nutsedge, Yellow [9, 18]: 75 | Plant response rating, Nutsedge, Yellow [9, 19]: 80 | Plant response rating, Blackgrass [10, 16]: 0 | Blackgrass plant response rating (0 to 100 scale) [10, 17]: 5 | Plant response rating, Blackgrass [10, 18]: 40 | Plant response rating, Blackgrass [10, 19]: 50 | Plant response rating, Bermudagrass [11, 16]: 70 | Bermudagrass plant response rating (0 to 100 scale) [11, 17]: 85 | Plant response rating, Bermudagrass [11, 18]: 90 | Plant response rating, Bermudagrass [11, 19]: 95 | Cupgrass, Woolly plant response rating (0 to 100 scale) [12, 17]: 60 | Plant response rating, Cupgrass, Woolly [12, 18]: 60 | Plant response rating, Cupgrass, Woolly [12, 19]: 75 | Ragweed plant response rating (0 to 100 scale) [13]: 95 | Plant response rating, Ragweed ([13]; 125 g ai/ha): 95 | Plant response rating, Ragweed ([13]; 250 g ai/ha): 98 | Plant response rating, Lambsquarters [14, 16]: 98 | Lambsquarters plant response rating (0 to 100 scale) [14, 17]: 98 | Plant response rating, Lambsquarters [14, 18]: 100 | Plant response rating, Lambsquarters [14, 19]: 100 | Plant response rating, Goosegrass [15, 16]: 65 | Goosegrass plant response rating (0 to 100 scale) [15, 17]: 75 | Plant response rating, Goosegrass [15, 18]: 80 | Plant response rating, Goosegrass [15, 19]: 85

COCCn1c(-c2ccco2)ncc(C(=O)C2=C(O)CCCC2=O)c1=O [Compound 111]
Plant response rating, Surinam Grass ([1]; 125 g ai/ha): 70 | Plant response rating, Surinam Grass ([1]; 250 g ai/ha): 80 | Plant response rating, Crabgrass, Large [2, 16]: 70 | Crabgrass, Large plant response rating (0 to 100 scale) [2, 17]: 75 | Plant response rating, Crabgrass, Large [2, 18]: 80 | Plant response rating, Crabgrass, Large [2, 19]: 85 | Plant response rating, Foxtail, Green [3, 16]: 40 | Foxtail, Green plant response rating (0 to 100 scale) [3, 17]: 60 | Plant response rating, Foxtail, Green [3, 18]: 65 | Plant response rating, Foxtail, Green [3, 19]: 70 | Ryegrass, Italian plant response rating (0 to 100 scale) [4]: 0 | Plant response rating, Ryegrass, Italian ([4]; 125 g ai/ha): 0 | Plant response rating, Ryegrass, Italian ([4]; 250 g ai/ha): 5 | Plant response rating, Corn (corn (Zea mays); [16]): 10 | Corn plant response rating (0 to 100 scale) (corn (Zea mays); [17]): 45 | Plant response rating, Corn (corn (Zea mays); [18]): 55 | Plant response rating, Corn (corn (Zea mays); [19]): 60 | Plant response rating, Bromegrass, Downy [5, 16]: 0 | Bromegrass, Downy plant response rating (0 to 100 scale) [5, 17]: 0 | Plant response rating, Bromegrass, Downy [5, 18]: 5 | Plant response rating, Bromegrass, Downy [5, 19]: 10 | Plant response rating, Foxtail, Giant [6, 16]: 60 | Foxtail, Giant plant response rating (0 to 100 scale) [6, 17]: 65 | Plant response rating, Foxtail, Giant [6, 18]: 65 | Plant response rating, Foxtail, Giant [6, 19]: 70 | Plant response rating, Johnsongrass [7, 16]: 10 | Johnsongrass plant response rating (0 to 100 scale) [7, 17]: 15 | Plant response rating, Johnsongrass [7, 18]: 20 | Plant response rating, Johnsongrass [7, 19]: 40 | Velvetleaf plant response rating (0 to 100 scale) [8]: 98 | Plant response rating, Velvetleaf ([8]; 125 g ai/ha): 100 | Plant response rating, Velvetleaf ([8]; 250 g ai/ha): 100 | Plant response rating, Kochia (kochia (Kochia scoparia); [16]): 80 | Kochia plant response rating (0 to 100 scale) (kochia (Kochia scoparia); [17]): 100 | Plant response rating, Kochia (kochia (Kochia scoparia); [18]): 100 | Plant response rating, Kochia (kochia (Kochia scoparia); [19]): 100 | Plant response rating, Nutsedge, Yellow [9, 16]: 65 | Nutsedge, Yellow plant response rating (0 to 100 scale) [9, 17]: 75 | Plant response rating, Nutsedge, Yellow [9, 18]: 80 | Plant response rating, Nutsedge, Yellow [9, 19]: 85 | Plant response rating, Blackgrass [10, 16]: 5 | Blackgrass plant response rating (0 to 100 scale) [10, 17]: 5 | Plant response rating, Blackgrass [10, 18]: 25 | Plant response rating, Blackgrass [10, 19]: 40 | Plant response rating, Bermudagrass [11, 16]: 95 | Bermudagrass plant response rating (0 to 100 scale) [11, 17]: 100 | Plant response rating, Bermudagrass [11, 18]: 100 | Plant response rating, Bermudagrass [11, 19]: 100 | Plant response rating, Cupgrass, Woolly [12, 16]: 40 | Cupgrass, Woolly plant response rating (0 to 100 scale) [12, 17]: 50 | Plant response rating, Cupgrass, Woolly [12, 18]: 75 | Plant response rating, Cupgrass, Woolly [12, 19]: 75 | Ragweed plant response rating (0 to 100 scale) [13]: 95 | Plant response rating, Ragweed ([13]; 125 g ai/ha): 98 | Plant response rating, Ragweed ([13]; 250 g ai/ha): 98 | Plant response rating, Lambsquarters [14, 16]: 98 | Lambsquarters plant response rating (0 to 100 scale) [14, 17]: 98 | Plant response rating, Lambsquarters [14, 18]: 100 | Plant response rating, Lambsquarters [14, 19]: 100 | Plant response rating, Goosegrass [15, 16]: 70 | Goosegrass plant response rating (0 to 100 scale) [15, 17]: 70 | Plant response rating, Goosegrass [15, 18]: 85 | Plant response rating, Goosegrass [15, 19]: 85
